According to the NIST ThermoML archive (doi:10.1016/j.jct.2013.05.046):

Assays:
[1] = xn = mol fraction of the nth substance listed; conditions: 101 kPa, Liquid, Cone and plate viscometry, x2 = 0.8
[2] = refractive index (Na D-line) (dimensionless); xn = mol fraction of the nth substance listed; conditions: 101 kPa, Liquid, Standard Abbe refractometry, x2 = 0.8

CC[P+](c1ccccc1)(c1ccccc1)c1ccccc1.[I-] [ethyltriphenylphosphonium iodide] + O=S1(=O)CCCC1
Conditions | refractive index, 298.15 K | refractive index, 303.15 K | refractive index, 313.15 K | refractive index, 323.15 K | refractive index, 333.15 K | viscosity, 298.15 K [mPa·s] | viscosity, 308.15 K [mPa·s] | viscosity, 318.15 K [mPa·s] | viscosity, 328.15 K [mPa·s] | viscosity, 338.15 K [mPa·s]
[1] | – | – | – | – | – | 95.03 | 52.14 | 24.15 | 15.24 | 9.578
[2] | 1.516 | 1.5142 | 1.5104 | 1.5069 | 1.5033 | – | – | – | – | –
